Source: patent publication US4559338A, “Soluble quinazolino-1,4-benzodiazepin-5,13-dione derivatives” (Merck & Co., Inc., priority 1985, dated 1985)
In brackets after ≈: the same amount, converted by molar mass. Counter-ions that a name gives are not always drawn. Like-named read-outs stand apart in the source and are kept apart here. Blank lines part the entries; values can stand above or below the compound they belong to. Where a SMILES comes first, the peptide text is derived from it. [ ]: non-standard residue; d: D form. The star is where a group is joined. sY = N[C@@H](Cc1ccc(OS(=O)(=O)O)cc1)C(=O)O; Cbz = O=C(OCc1ccccc1)*; Boc = CC(C)(C)OC(=O)*

Experiments:
CCK receptor = conditions: cited from earlier work
[1] = Solubility in deionized water and pH 7.4 phosphate buffer; format: physicochemical
CCK receptor (pancreas) = target: T1, CCK receptor (pancreas) (Rattus norvegicus, UniProt P30551); assay: CCK receptor binding (pancreas) method, 125I-CCK; design: species or system rat (male Sprague-Dawley); conditions: for IC50: I-CCK-8 Pancreas assay, read-out: Anti-CCK Activity IC50; for effect on the 125I-CCK receptor binding assay (in words): additional protease inhibitors in assay buffer
T1 construct: The whole pancreas of a male Sprague-Dawley rat (200-350 g); from tissue; host or cells: whole pancreas of male Sprague-Dawley rat, washed membrane homogenate
T1 sequence (P30551 1-444): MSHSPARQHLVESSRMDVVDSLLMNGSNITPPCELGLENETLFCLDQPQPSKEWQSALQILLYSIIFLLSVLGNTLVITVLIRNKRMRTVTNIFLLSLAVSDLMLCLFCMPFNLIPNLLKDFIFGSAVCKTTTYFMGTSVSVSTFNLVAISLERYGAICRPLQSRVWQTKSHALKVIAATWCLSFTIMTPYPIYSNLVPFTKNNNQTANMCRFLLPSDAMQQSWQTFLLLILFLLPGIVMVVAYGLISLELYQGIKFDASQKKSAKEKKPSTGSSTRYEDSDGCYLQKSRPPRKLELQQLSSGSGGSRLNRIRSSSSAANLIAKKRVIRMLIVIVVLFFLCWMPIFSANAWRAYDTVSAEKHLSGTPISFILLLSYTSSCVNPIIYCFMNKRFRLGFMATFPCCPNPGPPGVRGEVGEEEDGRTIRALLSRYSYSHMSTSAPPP
Protocol: Screening of the novel compounds according to the present invention to determine biological activity and obtain an IC50 value for them, in order to identify significant CCK-antagonism, may be accomplished using an ^125 I-CCK receptor binding assay and in vitro isolated tissue preparations. These tests involve the following:
CCK receptor binding (pancreas) method
[…] (J. Biol. Chem., 254, 9349-9351, 1979). Receptor binding is performed according to Innis and Snyder (Proc. Natl. Acad. Sci., 77, 6917-6921, 1980), with the minor modification of adding the additional protease inhibitors, phenyl-methane sulfonyl fluoride and o-phenanthroline, which have no effect on the ^125 I-CCK receptor binding assay.
The whole pancreas of a male Sprague-Dawley rat (200-350 g), which has been sacrificed by decapitation, is dissected free of fat tissue and homogenized in 20 volumes of ice-cold 50 mM Tris HCl (pH 7.7 at 25° C.) with a Brinkman Polytron PT-10. The homogenates are centrifuged at 48,000 g for 10 minutes, then the resulting pellets are resuspended in Tris Buffer, centrifuged as above, and resuspended in 200 volumes of binding assay buffer (50 mM Tris HCl, pH 7.7 at 25° C., 5 mM dithiothreitol, 0.1 mM bacitracin, 1.2 mM phenylmethane sulfonyl fluoride and 0.5 mM o-phenanthroline).
For the binding assay, 25 μl of buffer (for total binding), or unlabeled CCK-8 sulfate sufficient to give a final concentration of 1 μM of CCK-8 (for nonspecific binding), or the compounds of the formula of the compounds according to the instant invention ([…]), are added to 450 μl of the membrane suspensions in microfuge tubes. All assays are run in duplicate or triplicate, and the reaction mixtures are incubated at 37° C. for 30 minutes and centrifuged in a Beckman Microfuge (4 minutes) immediately after adding 1 ml of ice-cold incubation buffer. The supernatant is aspirated and discarded, and the pellets are counted with a Beckman Gamma 5000.
The compounds of Examples 1-9 were tested for solubility in deionized water and pH 7.4 phosphate buffer and as CCK-antagonists (pancreas assay) with the following results: […]

[2] = Solubility / stability and absorption stated in the text (no method described); format: physicochemical; conditions: white powder
[3] = compound of the earlier filing U.S. Pat. No. 4,530,790; cited from earlier work
[4] = deionized water, water, H2O (deionized water), read-out: Solubility
[5] = phosphate buffer, pH 7.4, aqueous buffer, pH 7.4 Buffer, read-out: Solubility

Solubility [1, 4]: 280 µg/mL (≈ 0.44 mM)
Solubility [1, 5]: 9500 µg/mL (≈ 14.9 mM)
IC50 (CCK receptor (pancreas)): 230 µM
Structure (SMILES): CC(C)C[C@H]1C(=O)N2c3ccccc3[C@@](O)(C[C@@H]3NC(=O)c4ccccc4-n4c3nc3ccccc3c4=O)[C@H]2N1C(=O)CCC(=O)O [Example 1, 2,3,9,9Aα-tetrahydro-9α-hydroxy-2-(2-methylpropyl)-γ,3-dioxo-9-(5,6,7,13-tetrahydro-5,13-dioxoquinazolino(3,2-A)-1,4-benzodiazepin-7-yl)-1H-imidazo(1,2-A)indole-1-butanoic acid]

water-soluble (in words) [2]: water-soluble
IC50 (CCK receptor (pancreas)): 3.8 µM
Structure (SMILES): CC(C)C[C@H]1C(=O)N2c3ccccc3[C@@](O)(C[C@@H]3NC(=O)c4ccccc4-n4c3nc3ccccc3c4=O)[C@H]2N1C(=O)[C@@H](N)CCCCN [Example 3, dihydrochloride]

Solubility ([1]; H2O (deionized water), dihydrate): 540 µg/mL
Solubility [1, 5]: 10800 µg/mL
IC50 (CCK receptor (pancreas)): 6.1 µM
Structure (SMILES): CC(C)C[C@H]1C(=O)N2c3ccccc3[C@@](O)(C[C@@H]3NC(=O)c4ccccc4N4C(=O)c5ccccc5NC34)[C@H]2N1C(=O)CCC(=O)O (stereo partly drawn) [Example 4, 9-(5,6,7,7A,8,13-hexahydro-5,13-dioxoquinazolino(3,2-A)-1,4-benzodiazepin-7-yl)-2,3,9,9A-tetrahydro-9α-hydroxy-2-(2-methylpropyl)-γ,3-dioxo-1H-imidazo(1,2-A)indole-1-butanoic acid dihydrate]

Solubility ([1]; H2O (deionized water), trihydrate): > 8900 µg/mL
IC50 (CCK receptor (pancreas)): 1.7 µM
Structure (SMILES): CC(C)C[C@H]1C(=O)N2c3ccccc3[C@@](O)(C[C@@H]3NC(=O)c4ccccc4N4C(=O)c5ccccc5NC34)[C@H]2N1C(=O)CCC(=O)O (stereo partly drawn) [Example 5, sodium 9-(5,6,7,7A,8,13-hexahydro-5,13-dioxoquinazolino(3,2-A)-1,4-benzodiazepin-7-yl)2,3,9,9A-tetrahydro-9α-hydroxy-2-(2-methylpropyl)-γ,3-dioxo-1H-imidazo(1,2-A)indole-1-butanoate trihydrate]

Solubility [1, 4]: 240 µg/mL
IC50 (CCK receptor (pancreas)): 1.8 µM
Structure (SMILES): CC(C)C[C@H]1C(=O)N2c3ccccc3[C@@](O)(C[C@@H]3NC(=O)c4ccccc4-n4c3nc3ccccc3c4=O)[C@H]2N1C(=O)[C@@H](N)CCCNC(=O)OCc1ccccc1 [Example 6, 1,2,9,9Aα-tetrahydro-9α-hydroxy-1-[2-amino-5-((phenylmethoxy)carbonyl)aminopentanoyl]-2-(2-methylpropyl)-9-[(5,6,7,13-tetrahydro-5,13-dioxoquinazolino(3,2-A)-1,4-benzodiazepin-7-yl)methyl]-3H-imidazo(1,2-A)indol-3-one hydrochloride]

Solubility ([1]; H2O (deionized water)): 10500 µg/mL
IC50 (CCK receptor (pancreas)): 1.4 µM
Structure (SMILES): CC(C)C[C@H]1C(=O)N2c3ccccc3[C@@](O)(C[C@@H]3NC(=O)c4ccccc4N4C(=O)c5ccccc5NC34)[C@H]2N1CC(=O)O (stereo partly drawn) [Example 7, 7β-[(1-carboxymethyl-2,3,9,9Aα-tetrahydro-9α-hydroxy-2-(2-methylpropyl)-3-oxo-1H-imidazo(1,2-A)indol-9-yl)methyl]-6,7,7A-8-tetrahydro-5H,13H-quinazolino(3,2-A)-1,4-benzodiazepin-5H,13-dione solvate]

Solubility ([1]; H2O (deionized water)): > 5200 µg/mL
IC50 (CCK receptor (pancreas)): 0.8 µM
Structure (SMILES): CC(C)C[C@H]1C(=O)N2c3ccccc3[C@@](O)(C[C@@H]3NC(=O)c4ccccc4N4C(=O)c5ccccc5NC34)[C@H]2N1CC(=O)O (stereo partly drawn) [Example 8, 7β-[(1-carboxymethyl-2,3,9,9Aα-tetrahydro-9α-hydroxy-2-(2-methylpropyl)-3-oxo-1H-imidazo(1,2-A)indol-9-yl)methyl]-6,7,7A-8-tetrahydro-5H,13H-quinazolino(3,2-A)-1,4-benzodiazepin-5H,13-dione sodium salt solvate]

IC50 (CCK receptor (pancreas)): 85 µM
Structure (SMILES): CC(C)C[C@@H]1N[C@H]2N(C1=O)c1ccccc1[C@]2(C[C@@H]1NC(=O)c2ccccc2-n2c1nc1ccccc1c2=O)OC(=O)CCC(=O)O [Example 9, 7β-[(2,3,9,9Aα-tetrahydro-9α-(3-carboxy-1-oxopropoxy)-2-(2-methylpropyl)-3-oxo-1H-imidazo(1,2-A)indol-9-yl)methyl]quinazolino(3,2-A)-1,4-benzodiazepin-5,13-(6H,7H)-dione monohydrate]

effect on the 125I-CCK receptor binding assay (in words) (CCK receptor (pancreas)): no effect
Structure (SMILES): c1cnc2c(c1)ccc1cccnc12 [o-phenanthroline, reference compound]

Continued, compound first:

Structure (SMILES): CSCC[C@H](NC(=O)OC(C)(C)C)C(=O)N[C@@H](CC(=O)O)C(=O)N[C@@H](Cc1ccccc1)C(N)=O [Boc-Met-Asp-Phe-NH2] (Boc-Met-Asp-Phe-NH2)
CCK-antagonist activity (in words) (CCK receptor): can function as CCK-antagonists

Structure (SMILES): CSCC[C@H](NC(=O)[C@H](Cc1ccc(OS(=O)(=O)O)cc1)NC(=O)OCc1ccccc1)C(=O)NCC(=O)N[C@@H](Cc1c[nH]c2ccccc12)C(=O)N[C@@H](CCSC)C(=O)N[C@@H](CC(=O)O)C(N)=O [Cbz-Tyr(SO3 H)-Met-Gly-Trp-Met-Asp-NH2] (Cbz-[sY]MGWMD-NH2)
CCK-antagonist activity (in words) (CCK receptor): can function as CCK-antagonists

Structure (SMILES): CC(C)CC1C(=O)N2c3ccccc3C(O)(C3NC(=O)c4ccccc4-n4c3nc3ccccc3c4=O)C2N1C(=O)CCC(=O)[O-].[Na+] (stereo not drawn) [Example 2, sodium 2,3,9,9Aα-tetrahydro-9α-hydroxy-2-(2-methylpropyl)-γ,3-dioxo-9-(5,6,7,13-tetrahydro-5,13-dioxoquinazolino(3,2-A)-1,4-benzodiazepin-7-yl)-1H-imidazo(1,2-A)indole-1-butanoate]
Solubility ([1]; H2O (deionized water)): 72000 µg/mL
IC50 (CCK receptor (pancreas)): 27 µM

Structure (SMILES): CSCC[C@H](N)C(=O)N[C@@H](CC(=O)O)C(=O)N[C@@H](Cc1ccccc1)C(N)=O [Met-Asp-Phe-NH2] (H-Met-Asp-Phe-NH2)
CCK-antagonist activity (in words) (CCK receptor): can function as CCK-antagonists

Structure (SMILES): CCCC(=O)Nc1nc2c(ncn2[C@@H]2O[C@@H]3COP(=O)(O)O[C@H]3[C@H]2OC(=O)CCC)c(=O)[nH]1 [dibutyryl cyclic GMP]
relative CCK antagonist potency within cyclic nucleotide class (in words) (CCK receptor; derivatives of cyclic nucleotides, structure-function studies): the most potent

Structure (SMILES): CC(C)C[C@@H]1N[C@H]2N(C1=O)c1ccccc1[C@@]2(O)C[C@@H]1NC(=O)c2ccccc2-n2c1nc1ccccc1c2=O [formula (I), 7β-((2,3,9,9Aα-tetrahydro-9α-hydroxy-2-(2-methylpropyl)-3-oxo-1H-imidazo-(1,2-A)-indol-9-yl)-methyl)quinazolino(3,2-A)(1,4) benzodiazepin-5,13-(6H,7H)dione]
CCK-antagonist activity (in words) (CCK receptor): has been shown to be a CCK-antagonist
solubility in water (in words) [3]: only slightly soluble in water

Structure (SMILES): O=S(=O)(F)Cc1ccccc1 [phenyl-methane sulfonyl fluoride, reference compound]
effect on the 125I-CCK receptor binding assay (in words) (CCK receptor (pancreas)): no effect
